What was measured:
Type in all cases: cell-based
HCT116 cells = test: Inhibition of proliferation of HCT116 cells by tomaymycin dimers (14C-thymidine incorporation); settings: Homo sapiens, HCT-116; HCT116, 3 days culture, 14C-thymidine incorporation at 96 h; read-out: Inhibition of proliferation (14C-thymidine pulse at 96 h) IC50 HCT116
Experimental: (§1) Evaluation of the Inhibition of Proliferation of the Cell Lines MDA-MB-231, MDA-A1 and HCT116 with the Compounds of Formula (IA) with RCG1=—SZa (Za=SMe) or RCG1=—C(═O)ZbRb (ZbRb=OMe)
(§2) MDA-MB-231, MDA-A1 or HCT116 cells in their exponential growth phase were trypsinized and resuspended in their respective culture medium (DMEM/F12 Gibco #21331, 10% FCS Gibco #10500-056, […] Glutamine Gibco #25030 for the MDA cells; DMEM Gibco #11960, 10% FCS Gibco #10500-056, 2 mM Glutamine Gibco #25030 for the HCT116 cells). The cell suspension was seeded in Cytostar 96-well culture plates (GE Healthcare Europe, #RPNQ0163) in the complete culture medium containing serum to a density of 5000 cells/well (MDA-MB-231, MDA-A1, HCT116). After incubation for 4 hours, successive dilutions of the tomaymycin dimers were added to the wells in triplicate for each concentration. The cells were cultured for 3 days at 37° C. under an atmosphere of 5% CO2 in the presence of the cytotoxic agents. On the fourth day, 10 μl of a solution of ^14C-thymidine (0.1 μCi/well, Perkin Elmer #NEC56825000) were added to each well. The incorporation of ^14C-thymidine was measured 96 hours after the start of the experiment with a Microbeta radioactivity counter (Perkin Elmer). The data are expressed in the form of a percentage of survival by determining the ratio between the Count obtained with the cells treated with the cytotoxic agents and that obtained with the cells of the control wells (treated with the culture medium alone).

MDA-MB-231 cells = test: Inhibition of proliferation of MDA-MB-231 cells by tomaymycin dimers (14C-thymidine incorporation); settings: Homo sapiens, MDA-MB231, 3 days culture, 14C-thymidine incorporation at 96 h, read-out: Inhibition of proliferation (14C-thymidine pulse at 96 h) IC50 MDA-MB231
Experimental: as §1, §2

MDA-A1 cells = test: Inhibition of proliferation of MDA-A1 cells by tomaymycin dimers (14C-thymidine incorporation); settings: MDA-A1, 3 days culture, 14C-thymidine incorporation at 96 h; read-out: Inhibition of proliferation (14C-thymidine pulse at 96 h) IC50 MDA-A1
Experimental: as §1, §2

Row | SMILES | IC50 (HCT116 cells) [nM] | IC50 (MDA-MB-231 cells) [nM] | IC50 (MDA-A1 cells) [nM]
1 | C/C=C1\C[C@H]2C=Nc3cc(OCc4cc(OCCN(CCOCCOCCOC)CC(C)(C)SSC)cc(COc5cc6c(cc5OC)C(=O)N5C/C(=C/C)C[C@H]5C=N6)n4)c(OC)cc3C(=O)N2C1 | 0.061 | 0.128 | 16.3
2 | C/C=C1\C[C@H]2C=Nc3cc(OCc4cc(OCCN(CCCC(=O)OCC)CCOCCOCCOC)cc(COc5cc6c(cc5OC)C(=O)N5C/C(=C/C)C[C@H]5C=N6)n4)c(OC)cc3C(=O)N2C1 | 0.018 | 0.041 | 3.46
3 | C/C=C1\C[C@H]2C=Nc3cc(OCc4cc(OCCN(CCOCCOCCOC)CCC(=O)OC)cc(COc5cc6c(cc5OC)C(=O)N5C/C(=C/C)C[C@H]5C=N6)n4)c(OC)cc3C(=O)N2C1 | 0.235 | 0.384 | 17.8
4 | C/C=C1\C[C@H]2C=Nc3cc(OCc4cc(OCCN(CCOCCOCCN5CCOCC5)CC(C)(C)SSC)cc(COc5cc6c(cc5OC)C(=O)N5C/C(=C/C)C[C@H]5C=N6)n4)c(OC)cc3C(=O)N2C1 | 0.048 | 0.081 | 26.5
5 | C/C=C1\C[C@H]2C=Nc3cc(OCc4cc(OCCN(CCCC(=O)OCC)C(=O)CCOCCOCCOCCOC)cc(COc5cc6c(cc5OC)C(=O)N5C/C(=C/C)C[C@H]5C=N6)n4)c(OC)cc3C(=O)N2C1 | 4.98 | 5.67 | > 50
